Reference: patent publication US8912216B2, “Hetaryl-[1,8]naphthyridine derivatives” (Merck Patent GmbH, priority 2010, dated 2014)

Legend:
GST-ALK5 = biological target: T1, GST-ALK5 (Homo sapiens, UniProt P36897); assay: In-vitro (enzyme) kinase assay, 384-well flashplate (Example 36); type: biochemical; settings: GST-ALK5, GST-SMAD2 substrate, 3 mM ATP, 30° C., 45 min; read-out: TβR activity (Example 36)
T1 sequence (P36897 34-503): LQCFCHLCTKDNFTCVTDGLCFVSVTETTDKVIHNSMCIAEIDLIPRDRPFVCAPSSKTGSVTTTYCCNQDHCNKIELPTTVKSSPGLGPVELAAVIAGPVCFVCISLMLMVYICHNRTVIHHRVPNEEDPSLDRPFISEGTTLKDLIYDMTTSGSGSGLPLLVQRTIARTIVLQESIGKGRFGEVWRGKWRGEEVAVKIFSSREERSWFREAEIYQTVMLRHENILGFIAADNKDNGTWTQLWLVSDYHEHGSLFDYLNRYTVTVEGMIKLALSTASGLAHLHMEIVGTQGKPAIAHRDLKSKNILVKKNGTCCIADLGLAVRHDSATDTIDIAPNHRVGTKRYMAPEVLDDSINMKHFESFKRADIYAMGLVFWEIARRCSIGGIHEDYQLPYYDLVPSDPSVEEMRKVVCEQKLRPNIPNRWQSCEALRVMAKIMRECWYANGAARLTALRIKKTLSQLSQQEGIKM
Procedure, shortened: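 Radiometric flashplate assay: 31.2 nM GST-ALK5 phosphorylating 439 nM GST-SMAD2 with 3 mM ATP plus ³³P-ATP, in HEPES/MgCl2/MnCl2/DTT/BSA buffer pH 7.4, 45 min at 30 °C, 5-10 compound concentrations. EDTA stop, filtration and washing, then radioactivity counted; IC50 derived from the curve.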

[1] = tested on: TGF-beta-induced phosphorylation of Smad2 and Smad3 in Mv1-Lu cells; assay: Inhibition of Smad2/3 phosphorylation in Mv1Lu cells (Example 35A); type: cell-based, mink Mustela vison; settings: Neogale vison, Mv1-Lu cells, TGF-beta 1 5 ng/ml, phospho-Smad2/3 ELISA, read-out: TβR activity (Example 35A)
Procedure, shortened: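 Serum-starved (16-20 h) Mv1-Lu mink lung epithelial cells were pre-incubated 1.5 h with compound dilutions (0.2% DMSO), then stimulated 1 h with 5 ng/ml TGF-beta 1. Phospho-Smad2 (Ser465/467)/Smad3 (Ser423/425) in lysates was measured by ELISA. IC50 came from dose-response fits between stimulated and unstimulated controls.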

Row | SMILES | IC50 (GST-ALK5) [nM] | IC50 [1] [nM]
1 | Fc1ccc(Cl)cc1-c1cc(-c2cncc(-c3cnn(CCN4CCOCC4)c3)c2)c2cccnc2n1 [compound 96, 2-(5-Chloro-2-fluoro-phenyl)-4-{5-[1-(2-morpholin-4-yl-ethyl)-1H-pyrazol-4-yl]-pyridin-3-yl}-[1,8]naphthyridine] | < 100 | < 100
2 | CN(C)CCCn1cc(-c2cncc(-c3cc(-c4cc(Cl)ccc4F)nc4ncccc34)c2)cn1 [compound 97, [3-(4-{5-[2-(5-Chloro-2-fluoro-phenyl)-[1,8]naphthyridin-4-yl]-pyridin-3-yl}-pyrazol-1-yl)-propyl]-dimethyl-amine] | < 100 | < 100
3 | Fc1ccc(Cl)cc1-c1cc(-c2cnccc2-c2ccccc2)c2cccnc2n1 [compound 98, 2-(5-Chloro-2-fluoro-phenyl)-4-(4-phenyl-pyridin-3-yl)-[1,8]naphthyridine] | 1000 to 10000 | 1000 to 10000
4 | Fc1ccc(Cl)cc1-c1cc(-c2cnc3ccccc3c2)c2cccnc2n1 [compound 100, 2-(5-Chloro-2-fluoro-phenyl)-4-quinolin-3-yl-[1,8]naphthyridine] | 1000 to 10000 | > 10000
5 | Fc1ccc(Cl)cc1-c1cc(-c2cccnc2-c2ccccc2)c2cccnc2n1 [compound 101, 2-(5-Chloro-2-fluoro-phenyl)-4-(2-phenyl-pyridin-3-yl)-[1,8]naphthyridine] | > 10000 | > 10000
6 | Fc1ccc(Cl)cc1-c1cc(-c2cncc(-c3ccncc3)c2)c2cccnc2n1 [compound 102, 4-[3,4′]Bipyridinyl-5-yl-2-(5-chloro-2-fluoro-phenyl)-[1,8]naphthyridine] | < 100 | 100 to 1000
7 | Fc1ccc(Cl)cc1-c1cc(-c2cncc(-c3ccccn3)c2)c2cccnc2n1 [compound 103, 4-[2,3′]Bipyridinyl-5′-yl-2-(5-chloro-2-fluoro-phenyl)-[1,8]naphthyridine] | < 100 | 100 to 1000
8 | Fc1ccc(Cl)cc1-c1cc(-c2cncc(-c3cccnc3)c2)c2cccnc2n1 [compound 104, 4-[3,3′]Bipyridinyl-5-yl-2-(5-chloro-2-fluoro-phenyl)-[1,8]naphthyridine] | < 100 | 100 to 1000
9 | Fc1ccc(Cl)cc1-c1cc(-c2cncc(-c3ccnc(N4CCNCC4)c3)c2)c2cccnc2n1 [compound 105, 2-(5-Chloro-2-fluoro-phenyl)-4-(2′-piperazin-1-yl-[3,4′]bipyridinyl-5-yl)-[1,8]naphthyridine] | < 100 | < 100
10 | Fc1ccc(Cl)cc1-c1cc(-c2cncc(-c3cccc(C(F)(F)F)n3)c2)c2cccnc2n1 [compound 106, 2-(5-Chloro-2-fluoro-phenyl)-4-(6-trifluoromethyl-[2,3′]bipyridinyl-5′-yl)-[1,8]naphthyridine] | 100 to 1000 | > 10000
11 | Fc1ccc(Cl)cc1-c1cc(-c2cncc(-c3ccc(Cl)nn3)c2)c2cccnc2n1 [compound 107, 2-(5-Chloro-2-fluoro-phenyl)-4-[5-(6-chloro-pyridazin-3-yl)-pyridin-3-yl]-[1,8]naphthyridine] | 100 to 1000 | 1000 to 10000
12 | Fc1ccc(Cl)cc1-c1cc(-c2cncc(-c3ccnc(N4CCOCC4)c3F)c2)c2cccnc2n1 [compound 108, 2-(5-Chloro-2-fluoro-phenyl)-4-(3′-fluoro-2′-morpholin-4-yl-[3,4′]bipyridinyl-5-yl)-[1,8]naphthyridine] | 100 to 1000 | 100 to 1000
13 | Nc1nccc(-c2cncc(-c3cc(-c4cc(Cl)ccc4F)nc4ncccc34)c2)n1 [compound 109, 4-{5-[2-(5-Chloro-2-fluoro-phenyl)-[1,8]naphthyridin-4-yl]-pyridin-3-yl}-pyrimidin-2-ylamine] | < 100 | 100 to 1000
14 | Fc1ccc(Cl)cc1-c1cc(-c2cncc(-c3cccc(-n4ccnc4)n3)c2)c2cccnc2n1 [compound 110, 2-(5-Chloro-2-fluoro-phenyl)-4-(6-imidazol-1-yl-[2,3′]bipyridinyl-5′-yl)-[1,8]naphthyridine] | > 10000 | > 10000

Further lines, results first:

Row | IC50 (GST-ALK5) [nM] | IC50 [1] [nM] | SMILES
15 | 100 to 1000 | 100 to 1000 | COc1cccc(-c2cncc(-c3cc(-c4cc(Cl)ccc4F)nc4ncccc34)c2)n1 [compound 111, 2-(5-Chloro-2-fluoro-phenyl)-4-(6-methoxy-[2,3′]bipyridinyl-5′-yl)-[1,8]naphthyridine]
16 | 100 to 1000 | 100 to 1000 | CC(C)(C)OC(=O)Nc1cc(-c2cncc(-c3cc(-c4cc(Cl)ccc4F)nc4ncccc34)c2)ccn1 [compound 112, {5-[2-(5-Chloro-2-fluoro-phenyl) [1,8]naphthyridin-4-yl]-[3,4′]bipyridinyl-2′-yl}-carbamic acid tert-butyl ester]
17 | < 100 | < 100 | CN1CCN(c2ccc(-c3cncc(-c4cc(-c5cc(Cl)ccc5F)nc5ncccc45)c3)nn2)CC1 [compound 113, 2-(5-Chloro-2-fluoro-phenyl)-4-{5-[6-(4-methyl-piperazin-1-yl)-pyridazin-3-yl]-pyridin-3-yl}-[1,8]naphthyridine]
18 | < 100 | < 100 | CN1CCN(c2ccc(-c3cncc(-c4cc(-c5cc(F)ccc5F)nc5ncccc45)c3)cc2)CC1 [compound 114, 2-(2,5-Difluoro-phenyl)-4-{5-[4-(4-methyl-piperazin-1-yl)-phenyl]-pyridin-3-yl}-[1,8]naphthyridine]
19 | < 100 | 100 to 1000 | CC(=O)Nc1cccc(-c2cncc(-c3cc(-c4cc(Cl)ccc4F)nc4ncccc34)c2)n1 [compound 115, N-{5′-[2-(5-Chloro-2-fluoro-phenyl)-[1,8]naphthyridin-4-yl]-[2,3′]bipyridinyl-6-yl}-acetamide]
20 | < 100 | < 100 | CN1CCN(c2cccc(-c3cncc(-c4cc(-c5cc(Cl)ccc5F)nc5ncccc45)c3)c2)CC1 [compound 116, 2-(5-Chloro-2-fluoro-phenyl)-4-{5-[3-(4-methyl-piperazin-1-yl)-phenyl]-pyridin-3-yl}-[1,8]naphthyridine]
21 | 100 to 1000 | 100 to 1000 | CN1CCN(c2ccc(-c3cc(-c4cc(-c5cc(Cl)ccc5F)nc5ncccc45)cnn3)cc2)CC1 [compound 117, 2-(5-Chloro-2-fluoro-phenyl)-4-{6-[4-(4-methyl-piperazin-1-yl)-phenyl]-pyridazin-4-yl}-[1,8]naphthyridine]
22 | < 100 | 100 to 1000 | CN(C)CCNC(=O)c1cccc(-c2cncc(-c3cc(-c4cc(Cl)ccc4F)nc4ncccc34)c2)c1 [compound 118, 3-{5-[2-(5-Chloro-2-fluoro-phenyl)-[1,8]naphthyridin-4-yl]-pyridin-3-yl}-N-(2-dimethylamino-ethyl)-benzamide]
23 | 100 to 1000 | 100 to 1000 | CN1CCN(c2cc(-c3cncc(-c4cc(-c5cc(Cl)ccc5F)nc5ncccc45)c3)ncn2)CC1 [compound 119, 2-(5-Chloro-2-fluoro-phenyl)-4-{5-[6-(4-methyl-piperazin-1-yl)-pyrimidin-4-yl]-pyridin-3-yl}-[1,8]naphthyridine]
24 | < 100 | < 100 | Fc1ccc(F)c(-c2cc(-c3cncc(-c4ccc(OC5CCNCC5)cc4)c3)c3cccnc3n2)c1 [compound 120, 2-(2,5-DifIuoro-phenyl)-4-{5-[4-(piperidin-4-yloxy)-phenyl]-pyridin-3-yl}-[1,8]naphthyridine]
25 | < 100 | 100 to 1000 | CN1CCN(c2ccc(-c3cncc(-c4cc(-c5cc(F)ccc5F)nc5ncccc45)c3)cn2)CC1 [compound 121, 2-(2,5-Difluoro-phenyl)-4-[6′-(4-methyl-piperazin-1-yl)-[3,3′]bipyridinyl-5-yl]-[1,8]naphthyridine]
26 | 100 to 1000 | 100 to 1000 | CC(=O)Nc1ccc(-c2cncc(-c3cc(-c4cc(Cl)ccc4F)nc4ncccc34)c2)nn1 [compound 122, N-(6-{5-[2-(5-Chloro-2-fluoro-phenyl)-[1,8]naphthyridin-4-yl]-pyridin-3-yl}-pyridazin-3-yl)-acetamide]
27 | < 100 | < 100 | CCN1CCC(c2ccc(-c3cncc(-c4cc(-c5cc(F)ccc5F)nc5ncccc45)c3)cc2)CC1 [compound 123, 2-(2,5-Difluoro-phenyl)-4-{5-[4-(1-ethyl-piperidin-4-yl)-phenyl]-pyridin-3-yl}-[1,8]naphthyridine]
28 | 1000 to 10000 | 100 to 1000 | CCOC(=O)c1cccc(-c2cncc(-c3cc(-c4cc(Cl)ccc4F)nc4ncccc34)c2)n1 [compound 124, 5′-[2-(5-Chloro-2-fluoro-phenyl)-[1,8]naphthyridin-4-yl]-[2,3′]bipyridinyl-6-carboxylic acid ethyl ester]
29 | 1000 to 10000 | 1000 to 10000 | Fc1ccccc1-c1cc(-c2cncc(-c3cccnc3)c2)c2cccnc2n1 [compound 125, 4-[3,3′]Bipyridinyl-5-yl-2-(2-fluoro-phenyl)-[1,8]naphthyridine]
